Measurements taken from patent US6846636B1, “Methods and compositions for HDL holoparticle uptake receptor” (American National Red Cross, priority 1998, dated 2005).
Entries after “also recorded” stand apart in the source; their conditions may differ.

Columns and labels:
[1] = test system: RA/Bt2cAMP-treated F9 cells; test: Cell layer-associated [35S]-sulfate after heparinase I treatment; assay type: cell-based, mouse; details: heparinase I 10 U/ml for 2 h; relative to controls
[2] = test system: RA/Bt2cAMP-treated F9 cells; test: DiI-HDL uptake by fluorescence-activated cell (FAC) scanning; assay type: cell-based, mouse; details: DiI-HDL 1 μg/ml, 37° C., competitors preincubated, apolipoproteins and RAP 1 μM, apoE 0.25 μM, heparin 80 μM, IgGs 200 μg/ml, heparinase I 10 U/ml
Protocol: Untreated and RA/Bt2cAMP-treated F9 cells (1-1.5×10^5 cells/cm^2) were grown for 18 hours in serum-free medium (DMEM, ITS, penicillin, and streptomycin). After washing the cell layers with the same serum-free medium, apoE-free DiI-HDL was added to a final concentration of 1 μg/ml and incubated for 1-2 hours at 37° C., 5% CO2. For competition experiments, competitors were added in serum-free medium and incubated for 0.5 hours at 37° C., 5% CO2 prior to the addition of the DiI-HDL. After the incubation, the medium was removed, cell layers washed with serum-free medium and the cells released with a 0.5 mg/ml trypsin-0.53 mM EDTA solution (Mediatech). The cells were then pelleted by centrifugation at 180×g and resuspended in DMEM. Twice more, the cells were pelleted by centrifugation at 180×g, and resuspended in dPBS. The cells were then subjected to FAC sorting on a FACStarplus instrument (Becton Dickinson, San Jose, Calif.).
RA/Bt2cAMP-treated and -untreated F9 cells (1-1.5×10^5 cclls/cm^2) were grown for 18 h in SFM. After washing the cell layers with SFM, DiI-HDL or DIO-LDL was added to a final concentration of 1 μg/ml and incubated for 2 h at 37° C., 5% CO2. For competition experiments, competitors (HDL, HDL2, HDL3 and their corresponding apoE-free forms), LDL, oxidized LDL, VLDL, §-VLDL, Lp(a) ([…]), apoA-I (28.3 μg/ml, 1 μM), apoA-II (I 7.3 μg/ml, 1 μM), apoC-I (6.6 μg/ml, 1 μM), apoC-III (8.8 μg/ml, 1 μM), apoJ (70 μg/ml, 1 μM), ovalbumin (45 μg/ml, 1 μM), RAP (39 μg/ml, 1 μM), apoE (8.5 μg/ml, 0.25 μM), heparin (80 μM, 250 U/ml) or IgGs (200 μg/ml) were added in SFM and incubated for 45 min at 37° C., 5% CO2 prior to the addition of the fluorescent lipoproteins. After the incubation, the medium was removed, cell layers were washed with SFM and the cells were released with trypsin-EDTA-proteinase K. The cells were washed once with DMEM, twice with dPBS, then subjected to FAC scanning on a FACStar Plus instrument (Becton Dickinson, San Jose, Calif.). Plotted data are from gated cells having fluorescence intensity values greater than the autofluorescence values of 99% of unlabeled cells. For some experiments, cell layers were treated with hepaninase I (10 U/ml) for 2 h prior to the addition of the DiI-HDL.

[3] = test system: RA/Bt2cAMP-treated F9 cells; test: [125I]-HDL internalization and degradation assay; assay type: cell-based, mouse; details: [125I]-HDL 2 μg/ml, 6.5 h at 37° C.; unlabeled HDL 80 μg/ml, RAP 1 μM, chloroquine 50 μM, anti-cubilin IgG 150 μg/ml
Protocol: HDL internalization and degradation assays were performed in a manner similar to LDL and apolipoprotein J internalization and degradation assays described previously (Stefansson et al., 1995; Kounnas et al., 1995). ApoE-free HDL (HDL3) was labeled with [^125I]-iodine using the iodine monochloride method (Goldstein et al., 1983). RA/Bt2cAMP-treated and -untreated F9 cells were seeded onto gelatin-coated 3.83 cm^2 wells (Corning, Corning, N.Y.) at 1.5-1.75×10^5 cells/well and allowed to grow for 18 h at 37° C., 5% CO2. Prior to the addition of [^125I]-HDL, the cells were washed with serum-free DMEM and incubated in the assay medium (DMEM, 20 mM HEPES, ITS, penicillin/streptomycin, and 1.5% BSA) containing unlabeled HDL3 (80 μg/ml), RAP (1 μM), chloroquine (50 μM) (Sigma) or BSA (10 μM) and incubated for 0.5 hours at 37° C., 5% CO2. The medium was then removed and [^125I]-HDL3 (2 μg/ml) in serum-free medium or in serum-free medium containing unlabeled HDL3 (80 μg/ml), RAP (1 μM), chloroquine (50 μM) or BSA (10 μM) was added and incubated with the cells for 6.5 h at 37° C., 5% CO2. The conditioned culture medium was treated with trichloroacetic acid (final concentration 10%) and centrifuged at 10,000×g for 10 min. The amount of radioactivity present in the supernatant was taken to represent the amount of degraded HDL (Goldstein and Brown, 1974). […] The released cells were pelleted by centrifugation at 1,000×g for 15 min and the amount of radioactivity in the cell pellet measured.
HDL internalization and degradation assays were performed as described previously for LDL and apolipoprotein J (Hammad et al., 1997; Kounnas et al., 1995; Stefansson et al., 1995a). […] The amount of radioactivity in the supernatant was taken to represent the amount of degraded HDL (Goldstein and Brown, 1974). […] The released cells were pelleted by centrifugation at 1,000×g for 15 min and the amount of radioactivity in the cell pellet was measured and taken to represent the amount of internalized HDL.

[4] = test system: visceral yolk sac endoderm; test: DiI-HDL uptake by mouse embryo yolk sac (ex utero culture, confocal microscopy); details: ± S.D.; DiI-HDL 1 μg/ml 1 h; RAP, ovalbumin 1 μM; IgGs 400 μg/ml; p<0.01 vs control
Protocol: Embryos (8-8.5 days post-conception) were removed from timed pregnant ICR mice (Harlan Sprague Dawley, Inc.) so as to leave visceral yolk sac endoderm intact and placed in DMEM. The embryos were then incubated in DMEM containing RAP (1 μM), ovalbumin (1 μM), rabbit anti-cubilin IgG (400 μg/ml) or normal rabbit IgG (400 μg/ml) for 0.5 h at 37° C., 5% CO2. DiI-HDL was added to a final concentration of (1 μg/ml) and incubated for 1 h at 37° C., 5% CO2. The medium was removed and the embryos gently washed with dPBS and fixed with 3% paraformaldehyde for 15 min. The fixed embryos were placed in dPBS, 0.1% azide in a well slide and examined by laser scanning confocal microscopy. The intensity of yolk sac fluorescence in mouse embryos incubated with DiI-HDL in the presence of either RAP, ovalbumin, anti-cubilin IgG or control IgG was evaluated by seven people in a double blinded fashion. The assessments of relative intensity were analyzed by a nonparametric statistical test using RANK and ANOVA procedures (SAS Institute, Inc., Cary, N.C.).

| Molecule | DiI-HDL uptake in presence of competitor [2] | further results |
| --- | --- | --- |
| heparinase I [reference compound] | Neither heparin nor heparinase I pretreatment of RA/Bt2cAMP-differentiated F9 cells inhibited DiI-HDL uptake | reduction of cell layer-associated [35S]-sulfate [1]: 50%; DiI-HDL uptake in presence of competitor ([2]; listed as heparinase): did not block HDL uptake |
| apoE: Human apoE3 purchased from Calbiochem | competed effectively |  |
| Fucoidan [reference compound] | inability of these ligands to block HDL uptake |  |
| heparin [reference compound] | Neither heparin nor heparinase I pretreatment of RA/Bt2cAMP-differentiated F9 cells inhibited DiI-HDL uptake; also recorded: did not block HDL uptake |  |
| Aprotinin [reference compound] | inability of these ligands to block HDL uptake |  |
| ApoAII: Human apolipoprotein, major apolipoprotein component of HDL | inhibit HDL uptake | DiI-HDL uptake in presence of competitor ([2]; listed as apoA-E): competed effectively |
| apoj: apolipoprotein J from Quidel | little or no ability to compete |  |
| apoA-I: Human apolipoprotein, major apolipoprotein component of HDL | competed effectively | DiI-HDL uptake in presence of competitor ([2]; listed as ApoAI): inhibit HDL uptake |
| CCN(CC)CCCC(C)Nc1ccnc2cc(Cl)ccc12 (centres unmarked) [chloroquine, reference compound] |  | degradation of [125I]-HDL [3]: effectively block the degradation |
| apoC-1: Human apolipoprotein (TPDVSSALDKLKEFGNTLEDKARELISRIKQSELSAKMREWFSETFQKVKEKLKIDS; UniProt P02654 27-83, looked up) | little or no ability to compete |  |
| apoC-III: Human apolipoprotein | little or no ability to compete |  |
| ApoE2: apolipoprotein component of HDL | inhibit HDL uptake |  |
| ovalbumin: control protein (protein, UniProt P01012 2-386, looked up) Ovalbumin: GSIGAASMEFCFDVFKELKVHHANENIFYCPIAIMSALAMVYLGAKDSTRTQINKVVRFDKLPGFGDSIEAQCGTSVNVHSSLRDILNQITKPNDVYSFSLASRLYAEERYPILPEYLQCVKELYRGGLEPINFQTAADQARELINSWVESQTNGIIRNVLQPSSVDSQTAMVLVNAIVFKGLWEKAFKDEDTQAMPFRVTEQESKPVQMMYQIGLFRVASMASEKMKILELPFASGTMSMLVLLPDEVSGLEQLESIINFEKLTEWTSSNVMEERKIKVYLPRMKMEEKYNLTSVLMAMGITDVFSSSANLSGISSAESLKISQAVHAAHAEINEAGREVVGSAEAGVDAASVSEEFRADHPFLFCIKHIATNAVLFFGRCVSP |  | fluorescence intensity RANK score of DiI-HDL incorporation into extraembryonic endoderm [4]: 4.16±0.15 |
